# Reference: ChEMBL document CHEMBL4130350, “Discovery, mechanism and metabolism studies of 2,3-difluorophenyl-linker-containing PARP1 inhibitors with enhanced in vivo efficacy for cancer therapy” (Eur J Med Chem, 2017)
# Active and inactive are the calls of the source. No cut-off for these calls is given here.
# Key:
# [1] = test system: MDA-MB-436; assay: Induction of apoptosis in human MDA-MB-436 cells assessed as late apoptotic cells at 1 uM after 96 hrs by Annexin V-FITC/propidium iodide double-staining based flow cytometery (reference value: 5.61%); assay type: functional
# [2] = Cmax in Sprague-Dawley rat at 10 mg/kg, po by LC-MS/MS analysis; assay type: ADME, organism-based; parameters: dose 10 mg/kg, route oral; details: in vivo
# [3] = test system: MDA-MB-436; assay: Induction of apoptosis in human MDA-MB-436 cells assessed as late apoptotic cells at 0.1 uM after 96 hrs in presence of pancaspase inhibitor Z-VAD-FMK by Annexin V-FITC/propidium iodide double-staining based flow cytometery (reference value: 5.11%); assay type: functional
# [4] = Efflux ratio of apparent permeability in human Caco2 cells after 2 hrs by LC-MS/MS analysis; assay type: ADME, cell-based; details: Caco-2
# [5] = test system: MDA-MB-436; assay: Induction of apoptosis in human MDA-MB-436 cells assessed as late apoptotic cells at 1 uM after 96 hrs in presence of pancaspase inhibitor Z-VAD-FMK by Annexin V-FITC/propidium iodide double-staining based flow cytometery (reference value: 5.11%); assay type: functional
# [6] = test system: MDA-MB-436; assay: Induction of apoptosis in human MDA-MB-436 cells after 96 hrs by Annexin V-FITC/propidium iodide double-staining based flow cytometery; assay type: functional, cell-based
# [7] = Apparent permeability across basolateral to apical side in human Caco2 cells after 2 hrs by LC-MS/MS analysis; assay type: ADME, cell-based; details: Caco-2
# [8] = test system: MDA-MB-436; assay: Induction of apoptosis in human MDA-MB-436 cells assessed as late apoptotic cells at 0.1 uM after 96 hrs by Annexin V-FITC/propidium iodide double-staining based flow cytometery (reference value: 5.61%); assay type: functional
# [9] = test system: MDA-MB-436; assay: Induction of apoptosis in human MDA-MB-436 cells assessed as early apoptotic cells at 1 uM after 96 hrs in presence of pancaspase inhibitor Z-VAD-FMK by Annexin V-FITC/propidium iodide double-staining based flow cytometery (reference value: 2.32%); assay type: functional
# [10] = test system: CAPAN-1; assay: Cell cycle arrest in human Capan1 cells assessed as accumulation at S phase at 1 uM after 72 hrs by propidium iodide-staining based flow cytometry (reference value: 21.42%); assay type: functional
# [11] = molecular target: T1, Poly [ADP-ribose] polymerase 1 (Homo sapiens, UniProt P09874); assay: Inhibition of PARP1 in human Capan1 cells assessed as increase in phosphorylated ATM protein levels at 0.1 to 1 uM after 48 hrs by Western blot analysis; assay type: cell-based
# [12] = molecular target: T1, Poly [ADP-ribose] polymerase 1; assay: Inhibition of PARP1 in BRCA1 deficient human MDA-MB-436 cells assessed as increase in DNA double stranded breaks by measuring gammaH2AX levels after 72 hrs by Western blot analysis; assay type: cell-based
# [13] = Solubility of the compound in water after 24 hrs by HPLC analysis; assay type: physicochemical
# [14] = test system: CAPAN-1; assay: Cell cycle arrest in human Capan1 cells assessed as accumulation at G2/M phase at 10 uM after 72 hrs by propidium iodide-staining based flow cytometry (reference value: 15.26%); assay type: functional
# [15] = molecular target: T1, Poly [ADP-ribose] polymerase 1; assay: Inhibition of PARP1 in human Capan1 cells assessed as increase in formation of phosphorylated ATM foci in cells at 10 uM after 48 hrs by confocal microscopy; assay type: cell-based
# [16] = Drug metabolism in mouse liver microsomes assessed as dehydrogenation at 2 uM up to 60 mins in presence of NADPH by LC-MS/MS analysis; assay type: ADME, microsome; details: 1 h
# [17] = molecular target: T1, Poly [ADP-ribose] polymerase 1; assay: Inhibition of PARP1 in BRCA2 deficient human Capan1 cells assessed as increase in DNA double stranded breaks by measuring gammaH2AX levels after 72 hrs by Western blot analysis
# [18] = molecular target: T1, Poly [ADP-ribose] polymerase 1; assay: Inhibition of PARP1 in human Capan1 cells assessed as increase in phosphorylated chk1 protein levels at 0.1 to 1 uM after 48 hrs by Western blot analysis; assay type: cell-based
# [19] = test system: MDA-MB-436; assay: Induction of apoptosis in human MDA-MB-436 cells assessed as early apoptotic cells at 1 uM after 96 hrs by Annexin V-FITC/propidium iodide double-staining based flow cytometery (reference value: 1.90%); assay type: functional
# [20] = Clearance in Sprague-Dawley rat at 5 mg/kg, iv by LC-MS/MS analysis; assay type: ADME, organism-based; details: in vivo
# [21] = Cytotoxicity against BRCA2 deficient Chinese hamster VC8 cells after 3 days by CCK8 or SRB assay; assay type: functional, cell-based; details: Cricetulus griseus, V-C8, 72 h
# [22] = test system: Mus musculus; assay: Toxicity in nude BALB/cA mouse xenografted with human Capan1 cells harboring BRCA2 mutant assessed as weight loss at 40 mg/kg, po administered once daily for 21 consecutive days measured twice per week; assay type: organism-based; details: in vivo
# [23] = Drug metabolism in mouse liver microsomes assessed as oxidative metabolite formation at 2 uM up to 60 mins in presence of NADPH by LC-MS/MS analysis; assay type: ADME, microsome; details: 1 h
# [24] = molecular target: T1, Poly [ADP-ribose] polymerase 1; assay: Inhibition of PARP1 (unknown origin) by ELISA
# [25] = AUC in Sprague-Dawley rat at 10 mg/kg, po by LC-MS/MS analysis; assay type: ADME, organism-based; details: in vivo
# [26] = test system: MDA-MB-436; assay: Induction of apoptosis in human MDA-MB-436 cells assessed as early apoptotic cells at 0.1 uM after 96 hrs in presence of pancaspase inhibitor Z-VAD-FMK by Annexin V-FITC/propidium iodide double-staining based flow cytometery (reference value: 2.32%); assay type: functional
# [27] = test system: CAPAN-1; assay: Cell cycle arrest in human Capan1 cells assessed as accumulation at G0/G1 phase at 0.1 uM after 72 hrs by propidium iodide-staining based flow cytometry (reference value: 63.33%); assay type: functional
# [28] = test system: MDA-MB-436; assay: Antitumor activity against human MDA-MB-436 cells harboring BRCA1 mutant xenografted in nude BALB/cA mouse assessed as tumor growth inhibition at 50 mg/kg, po administered once daily for 21 consecutive days measured twice per week; assay type: functional; details: MDA-MB-436, po, read-out: TGI
# [29] = test system: Mus musculus; assay: Toxicity in nude BALB/cA mouse xenografted with human Capan1 cells harboring BRCA2 mutant assessed as mortality at 40 mg/kg, po administered once daily for 21 consecutive days measured twice per week; assay type: organism-based; details: in vivo
# [30] = test system: CAPAN-1; assay: Effect on total ATM protein levels in human Capan1 cells at 0.1 to 1 uM after 48 hrs by Western blot analysis; assay type: ADME, cell-based; details: capan-1, 48 h
# [31] = Volume of distribution in Sprague-Dawley rat at 5 mg/kg, iv by LC-MS/MS analysis; assay type: ADME, organism-based; details: in vivo
# [32] = Cmax in Sprague-Dawley rat at 5 mg/kg, iv by LC-MS/MS analysis; assay type: ADME, organism-based; parameters: dose 5 mg/kg, route intravenous; details: in vivo
# [33] = test system: CAPAN-1; assay: Cell cycle arrest in human Capan1 cells assessed as accumulation at G0/G1 phase at 10 uM after 72 hrs by propidium iodide-staining based flow cytometry (reference value: 63.33%); assay type: functional
# [34] = Half life in Sprague-Dawley rat at 10 mg/kg, po by LC-MS/MS analysis; assay type: ADME, organism-based; details: in vivo
# [35] = molecular target: T1, Poly [ADP-ribose] polymerase 1; assay: Inhibition of PARP1 in BRCA2 deficient human Capan1 cells assessed as increase in DNA double stranded breaks by measuring gammaH2AX levels after 48 hrs by Western blot analysis
# [36] = test system: CAPAN-1; assay: Cell cycle arrest in human Capan1 cells assessed as accumulation at S phase at 10 uM after 72 hrs by propidium iodide-staining based flow cytometry (reference value: 21.42%); assay type: functional
# [37] = test system: Mus musculus; assay: Toxicity in nude BALB/cA mouse xenografted with human MDA-MB-436 cells harboring BRCA1 mutant assessed as mortality at 50 mg/kg, po administered once daily for 21 consecutive days measured twice per week; assay type: organism-based; details: in vivo
# T1 sequence (P09874 whole entry): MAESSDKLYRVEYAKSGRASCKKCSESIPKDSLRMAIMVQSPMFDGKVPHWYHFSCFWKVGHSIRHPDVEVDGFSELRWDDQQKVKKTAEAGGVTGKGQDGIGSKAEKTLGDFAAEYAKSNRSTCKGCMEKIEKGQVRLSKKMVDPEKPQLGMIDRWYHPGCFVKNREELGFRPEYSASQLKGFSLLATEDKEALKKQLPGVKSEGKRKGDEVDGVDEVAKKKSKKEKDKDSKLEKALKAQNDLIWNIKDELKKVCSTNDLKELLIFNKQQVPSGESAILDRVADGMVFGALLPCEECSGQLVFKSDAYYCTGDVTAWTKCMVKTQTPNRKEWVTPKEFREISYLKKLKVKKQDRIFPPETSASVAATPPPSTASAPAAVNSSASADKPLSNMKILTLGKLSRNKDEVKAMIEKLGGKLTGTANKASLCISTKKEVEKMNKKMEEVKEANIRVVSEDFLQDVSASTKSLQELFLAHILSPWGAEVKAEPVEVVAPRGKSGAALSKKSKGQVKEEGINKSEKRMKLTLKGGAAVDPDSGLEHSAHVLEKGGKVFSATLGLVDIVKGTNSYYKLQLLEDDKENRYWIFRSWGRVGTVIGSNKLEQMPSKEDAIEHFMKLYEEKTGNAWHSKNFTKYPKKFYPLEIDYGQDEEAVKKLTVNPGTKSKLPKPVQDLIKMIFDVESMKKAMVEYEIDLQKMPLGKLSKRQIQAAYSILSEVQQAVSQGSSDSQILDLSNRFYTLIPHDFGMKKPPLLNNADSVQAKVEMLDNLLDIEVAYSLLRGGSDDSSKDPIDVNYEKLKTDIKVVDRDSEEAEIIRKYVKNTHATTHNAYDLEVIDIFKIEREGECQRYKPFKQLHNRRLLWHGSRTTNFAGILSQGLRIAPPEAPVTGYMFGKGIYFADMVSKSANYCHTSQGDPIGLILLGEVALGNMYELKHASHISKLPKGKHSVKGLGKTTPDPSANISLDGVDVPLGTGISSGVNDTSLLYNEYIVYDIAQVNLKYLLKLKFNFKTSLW
compound,measurement,setting,value
N#Cc1cccnc1N1CCN(C(=O)c2cc(Cc3n[nH]c(=O)c4ccccc34)cc(F)c2F)CC1,Activity,[1],32.34%
same,Cmax,[2],74.4 ng/mL
same,Activity,[3],17.99%
same,efflux ratio at 2 h,[4],5
same,Activity,[5],18.6%
same,Activity,[6],Dose-dependent effect
same,Papp B→A at 2 h,[7],34.1 ×10⁻⁶ cm/s
same,Activity,[8],29.32%
same,Activity,[9],6.61%
same,Activity,[10],27.67%
same,inhibition,[11],Active
same,inhibition,[12],Dose-dependent effect
same,solubility at 24 h,[13],1.1 µg/mL
same,Activity,[14],72.45%
same,inhibition,[15],Active
same,Drug metabolism,[16],Metabolite_Detected
same,inhibition,[17],Dose-dependent effect
same,inhibition,[18],Active
same,Activity,[19],7.09%
same,clearance,[20],60 mL/min/kg
same,IC50,[21],3 pM
same,Activity,[22],Non-Toxic
same,Drug metabolism,[23],Metabolite_Detected
same,IC50,[24],1.3 nM
same,AUC,[25],130 ng·h/mL
same,Activity,[26],6.48%
same,Activity,[27],55.92%
same,inhibition in vivo at 50 mg/kg,[28],94.2%
same,Activity,[29],Non-Toxic
same,Activity,[30],Non-Toxic
same,Vd,[31],27.5 L/kg
same,Cmax,[32],3260 ng/mL
same,Activity,[33],5.15%
same,half-life,[34],180 min
same,inhibition,[35],Dose-dependent effect
same,Activity,[36],22.4%
same,Activity,[37],Non-Toxic
